Reference: ChEMBL document CHEMBL3351924, “Detailed analysis and follow-up studies of a high-throughput screening for indoleamine 2,3-dioxygenase 1 (IDO1) inhibitors” (Eur J Med Chem, 2014)
≈ marks a conversion by molar mass, not a printed value.

Assays:
[1] = molecular target: T1, Indoleamine 2,3-dioxygenase 1 (Homo sapiens, UniProt P14902); assay: Inhibition of IDO1 (unknown origin) using L-tryptophan substrate incubated for 60 mins in presence of 0.01% Triton-X by HPLC
[2] = Solubility of the compound in pH 6.5 phosphate buffer containing 5% DMSO; details: phosphate buffer containing 5% DMSO
[3] = molecular target: T1, Indoleamine 2,3-dioxygenase 1; assay: Inhibition of IDO1 (unknown origin) using L-tryptophan substrate incubated for 60 mins by HPLC
[4] = molecular target: Indoleamine 2,3-dioxygenase 1 (Mus musculus, UniProt P28776); assay: Inhibition of mouse IDO1 expressed in mouse P815B cells using L-tryptophan substrate incubated for 18 hrs by HPLC based cellular assay; format: cell-based
Chain of Indoleamine 2,3-dioxygenase 1 (Mus musculus, UniProt P28776) (P28776 whole entry): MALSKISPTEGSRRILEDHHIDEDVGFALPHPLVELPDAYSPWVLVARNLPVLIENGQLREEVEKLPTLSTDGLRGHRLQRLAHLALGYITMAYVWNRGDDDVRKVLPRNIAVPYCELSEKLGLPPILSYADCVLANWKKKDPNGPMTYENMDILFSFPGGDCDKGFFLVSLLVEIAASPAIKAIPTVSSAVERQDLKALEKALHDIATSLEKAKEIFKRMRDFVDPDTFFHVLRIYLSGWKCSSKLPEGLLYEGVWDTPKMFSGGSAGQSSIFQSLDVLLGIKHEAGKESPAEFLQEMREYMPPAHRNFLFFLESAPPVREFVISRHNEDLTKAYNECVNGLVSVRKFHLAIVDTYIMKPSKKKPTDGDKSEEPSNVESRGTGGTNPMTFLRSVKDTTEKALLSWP

[5] = molecular target: Tryptophan 2,3-dioxygenase (Mus musculus, UniProt P48776); assay: Inhibition of mouse TDO expressed in mouse P815B cells using L-tryptophan substrate incubated for 24 hrs by HPLC based cellular assay; format: cell-based; details: p815b
Chain of Tryptophan 2,3-dioxygenase (P48776 whole entry): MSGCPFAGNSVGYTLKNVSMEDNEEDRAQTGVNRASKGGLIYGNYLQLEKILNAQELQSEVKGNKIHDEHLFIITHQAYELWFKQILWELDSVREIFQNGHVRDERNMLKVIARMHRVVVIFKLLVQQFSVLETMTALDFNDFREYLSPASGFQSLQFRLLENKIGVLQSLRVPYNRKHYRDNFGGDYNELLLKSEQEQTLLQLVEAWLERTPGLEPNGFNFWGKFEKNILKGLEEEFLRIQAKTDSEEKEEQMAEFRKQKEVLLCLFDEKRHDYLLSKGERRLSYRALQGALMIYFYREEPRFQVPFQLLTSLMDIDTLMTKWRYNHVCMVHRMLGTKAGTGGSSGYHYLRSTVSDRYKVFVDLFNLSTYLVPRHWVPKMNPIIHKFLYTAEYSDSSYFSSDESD

[6] = Cytotoxicity against mouse P815B cells after 24 hrs by MTS/PMS assay; details: P815B cells
[7] = molecular target: T1, Indoleamine 2,3-dioxygenase 1; assay: Inhibition of IDO1 (unknown origin) using L-tryptophan substrate incubated for 60 mins in presence of 5 mM GSH by HPLC

T1 sequence (P14902 whole entry): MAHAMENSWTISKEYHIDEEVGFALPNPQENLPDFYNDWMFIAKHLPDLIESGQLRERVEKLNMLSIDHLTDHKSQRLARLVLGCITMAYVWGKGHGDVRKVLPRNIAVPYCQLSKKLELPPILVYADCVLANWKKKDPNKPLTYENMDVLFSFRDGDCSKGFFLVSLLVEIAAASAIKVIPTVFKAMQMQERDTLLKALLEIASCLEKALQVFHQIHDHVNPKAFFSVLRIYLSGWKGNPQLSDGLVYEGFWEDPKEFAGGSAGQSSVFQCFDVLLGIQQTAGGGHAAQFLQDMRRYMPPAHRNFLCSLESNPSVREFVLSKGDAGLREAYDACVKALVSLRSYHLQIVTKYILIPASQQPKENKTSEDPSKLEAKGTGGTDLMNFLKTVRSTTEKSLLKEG

In the case of `OC(Cn1ccnc1)c1ccccc1` (stereo not given), the IC50 [1] is reported as “Not Active” and the solubility [2] is reported as > 1000 µM.

For `OC(Cn1ccnc1)c1ccc(Cl)cc1Cl` (stereo not given), the IC50 ([1]; read-out: IC50) was 130 µM and the solubility [2] was > 1000 µM.

For `N=C(N)SCc1nc(-c2ccc(Cl)cc2)no1`, the IC50 ([1]; read-out: IC50) was 1.2 µM, the IC50 ([3]; read-out: IC50) was 0.89 µM and the IC50 ([4]; read-out: IC50) was 2.1 µM. The IC50 [5] was “Not Active”, the CC50 at 24 h [6] was 10 µM and the solubility [2] was 1000 µM (≈ 269 µg/mL).

With `OC(Cn1cncn1)c1ccc(Cl)cc1Cl` (stereo not given) the IC50 [1] was “Not Active” and the solubility [2] was > 1000 µM.

With `OC(Cn1ccnc1)c1ccc(Cl)cc1` (stereo not given) the IC50 [1] was “Not Active” and the solubility [2] was > 1000 µM.

`Cc1cc(N/C=C(\C#N)S(=O)(=O)c2ccccc2Cl)nc(C)n1` showed a solubility [2] of 250 µM (≈ 87.2 µg/mL).

For `NC(=S)N/N=C1\CCc2ccccc21`, the IC50 [3] was “Not Active” and the solubility [2] was 1000 µM (≈ 205 µg/mL).

With `Nc1n[nH]c2cc(O)[nH]c(=O)c12` the IC50 [3] was “Not Active” and the solubility [2] was 1000 µM (≈ 166 µg/mL).

With `c1ccc(-n2ccnc2)cc1` the IC50 [1] was “Not Active” and the solubility [2] was > 1000 µM.

`CN(C)/C=N/C(=S)Nc1cccc(F)c1` showed a solubility [2] of 1000 µM (≈ 225 µg/mL).

In the case of `COC(=O)/C(C#N)=C(\C#N)c1ccc(Br)o1`, the IC50 ([3]; read-out: IC50) is reported as 0.71 µM, the IC50 ([4]; p815b) is reported as “Not Active” and the IC50 [5] is reported as “Not Active”. The CC50 at 24 h [6] was 5 µM, the IC50 [7] was 7.1 µM and the solubility [2] was 100 µM (≈ 28.1 µg/mL).

For `N#CC(C#N)=C1c2cc(S(N)(=O)=O)cc([N+](=O)[O-])c2-c2c1cc(S(N)(=O)=O)cc2[N+](=O)[O-]`, the IC50 ([1]; read-out: IC50) was 0.96 µM, the IC50 ([3]; read-out: IC50) was 1 µM and the IC50 ([4]; p815b) was “Not Active”. The IC50 [5] was “Not Active”, the CC50 at 24 h [6] was > 25 µM and the IC50 [7] was 1.6 µM. For the same compound, the solubility [2] was 250 µM (≈ 119 µg/mL).

In the case of `COC(=O)/C(C#N)=C1/C(=O)Nc2ccccc21`, the IC50 ([3]; read-out: IC50) is reported as 1.8 µM, the IC50 ([4]; p815b) is reported as “Not Active” and the IC50 [5] is reported as “Not Active”. The CC50 at 24 h [6] was > 25 µM, the IC50 [7] was 130 µM and the solubility [2] was 100 µM (≈ 22.8 µg/mL).

With `N#CC(C(=O)Nc1cccc(C(F)(F)F)c1)C(=S)Nc1ccccc1Cl` (stereo not given) the IC50 ([1]; read-out: IC50) was 6.3 µM, the IC50 ([3]; read-out: IC50) was 7 µM and the IC50 ([4]; p815b) was “Not Active”. The IC50 [5] was “Not Active”, the CC50 at 24 h [6] was > 25 µM and the IC50 [7] was 71 µM. For the same compound, the solubility [2] was 1000 µM (≈ 398 µg/mL).

In the case of `NNC(=O)c1nn(-c2ccccc2)c(=O)c2c(N)scc12`, the IC50 ([1]; read-out: IC50) is reported as 15 µM, the IC50 ([3]; read-out: IC50) is reported as 13 µM and the IC50 ([4]; p815b) is reported as “Not Active”. For the same compound, the IC50 [5] was “Not Active”, the CC50 at 24 h [6] was > 25 µM and the solubility [2] was 1000 µM (≈ 301 µg/mL).

For `CCN(CC)c1ccc(NC(=O)C2CCCCC2)c(N(CC)CC)n1`, the solubility [2] was 25 µM (≈ 8.66 µg/mL).

In the case of `CC1=C(C#N)C(c2ccc(-c3ccc(Cl)cc3[N+](=O)[O-])o2)C(C#N)=C(C)N1`, the IC50 [3] is reported as “Not Active” and the solubility [2] is reported as 50 µM (≈ 19 µg/mL).

With `NC(=O)N/N=C/c1ccc(-c2ccc(C(F)(F)F)cc2[N+](=O)[O-])o1` the IC50 [3] was “Not Active” and the solubility [2] was 50 µM (≈ 17.1 µg/mL).

With `Oc1c(Cl)cc(Cl)cc1/C=N/c1ccc2[nH]cnc2c1` the solubility [2] was 10 µM (≈ 3.06 µg/mL).

For `NC(=S)N/N=C/c1c(F)cccc1Cl`, the solubility [2] was 250 µM (≈ 57.9 µg/mL).

For `Cc1cc(NS(=O)(=O)c2ccc(Cl)s2)no1`, the solubility [2] was 1000 µM (≈ 279 µg/mL).

`CNC(=S)N/N=C/c1ccc(OC)c(OC)c1` showed a solubility [2] of 1000 µM (≈ 253 µg/mL).

For `CC(C)(C)S(=O)(=O)/C(C#N)=C/c1ccsc1`, the solubility [2] was 1000 µM (≈ 255 µg/mL).

`Cc1nn(-c2ccccc2)nc1CNC(=O)c1ccc2nsnc2c1` showed a solubility [2] of 50 µM (≈ 17.5 µg/mL).

For `N#C/C(=C\c1c[nH]cn1)S(=O)(=O)c1ccc(Cl)cc1`, the solubility [2] was 1000 µM (≈ 294 µg/mL).

For `Oc1nc(=S)ccn1-c1nc(-c2ccccc2)sc1-c1ccccc1`, the solubility [2] was 50 µM (≈ 18.2 µg/mL).

Compound `Cn1cc(Cl)c(/C=C(\C#N)S(=O)(=O)C(C)(C)C)n1` has a solubility [2] of 1000 µM (≈ 288 µg/mL).

`COc1ccc(-c2n[nH]cc2/C=C(/C#N)S(C)(=O)=O)cc1` showed a solubility [2] of 100 µM (≈ 30.3 µg/mL).

`COCCCNC(=O)N/N=C/c1ccco1` gave a solubility [2] of 1000 µM (≈ 225 µg/mL).

For `N#C/C(=C\c1c[nH]cn1)S(=O)(=O)c1cccs1`, the solubility [2] was 1000 µM (≈ 265 µg/mL).

For `COc1ccccc1NC(=S)N/N=C/c1ccco1`, the solubility [2] was 250 µM (≈ 68.8 µg/mL).

With `Oc1ccc(Br)cc1/C=N/c1ccc2[nH]nnc2c1` the IC50 [3] was “Not Active” and the solubility [2] was 10 µM (≈ 3.17 µg/mL).

For `CSC1=NNC(c2ccccn2)S1` (stereo not given), the solubility [2] was 100 µM (≈ 21.1 µg/mL).

For `S=c1[nH]cc(-c2ccc(Cl)cc2)o1`, the IC50 [3] was “Not Active” and the solubility [2] was 100 µM (≈ 21.2 µg/mL).

`Clc1ccc(Sc2nc(-c3cccs3)ns2)cc1` showed a solubility [2] of 100 µM (≈ 31.1 µg/mL).

In the case of `O=C(CC(=O)c1cccnc1)c1cccnc1`, the solubility [2] is reported as 1000 µM (≈ 226 µg/mL).

For `Cc1cc(C)n2[nH]c(=S)nc2n1`, the solubility [2] was 1000 µM (≈ 180 µg/mL).
